# Results from patent US9657147B2, “Method for preparing glycolide polyester by ring opening polymerization” (TEKNOLOGIAN TUTKIMUSKESKUS VTT OY, priority 2011, dated 2017).
# Assay: Test of solubility of the starting materials and homopolyglycolide in organic solvents
# Text: A solvent which could be used in the ring opening polymerization should meet criteria: i) the solvent should be good enough to dissolve all starting materials including monomer (glycolide), co-monomer, initiator, catalyst and dispersion stabilizer, and ii) it should not dissolve resulting polymer (homopolyglycolide and co-polymers).
compound,measurement,setting,value
O=C1COC(=O)CO1 [Glycolide],solution concentration permitted in acetonitrile,solvent acetonitrile,50 wt-%
same,solubility in Toluene,solvent toluene,bad
